Like-named read-outs stand apart in the source and are kept apart here.
Columns and labels:
[1] = system: Human ovarian adenocarcinoma cells (OVCAR-3); assay: Cytotoxicity assay (MTS), OVCAR-3; type: cell-based
Protocol: (§1) Human ovarian adenocarcinoma cells (OVCAR-3) (5×10^3 cells/well) and RAW 264.7 mouse macrophages (2×10^4 cells/well) were plated in 96-well plate in RPMI-1640 medium and Dulbecco's Modified Eagle's Medium (DMEM) (20% and 10% fetal bovine serum, for the OVCAR-3 and RAW 264.7, respectively and 1% penicillin/streptomycin). […] The paclitaxel conjugate was prepared as described previously, and the Taxol®-mimicking formulation was prepared in similar composition to Taxol® (i.e. Cremophor-EL and ethanol, 1:1 v/v). For each well, 20 μL of every formulation was added to 100 μL of the medium. The cells were incubated with the formulations for 72 h and washed once with phosphate-buffered saline (PBS) and 100 μL of the complete medium was added to the cells. 20 μL of the MTS combined reagent was added to each well (Cell Titer 96® Aqueous Non-Radioactive Cell Proliferation Assay, Promega Co., Madison, Wis.). […] Absorbance was measured at 490 nm using SpectraMax M5 (Molecular Devices Co., Sunnyvale, Calif.). The cell viability was calculated based on the relative absorbance to the control untreated cells. The IC50 values were calculated using GraphPad Prism four-parameter fit, considering the 0% and 100% viabilities correspond to the medium control (no cells) and cells-treated with PBS, respectively.

[2] = system: RAW 264.7 mouse macrophages; assay: Cytotoxicity assay (MTS), RAW 264.7; type: cell-based
Protocol: as §1

[3] = system: KB cells, a human nasal pharyngeal cancer cell line; assay: Cell viability (WST-1), KB cells; type: cell-based; conditions: Table 1, 72 h, PTX as free PTX
Protocol: Polymer paclitaxel and free paclitaxel were tested in KB cells, a human nasal pharyngeal cancer cell line and A549 cells, a human lung carcinoma cell line. KB and A549 cells (ATCC, Manassas, Va.) were maintained in monolayer cultures in folate free RPMI (Life Technologies, Carlsbad, Calif.) and F-12K media (Mediatech, Manassas, Va.) respectively, supplemented with 10% fetal bovine serum and penicillin/streptomycin antibiotics. For screening purposes 2,500 cells in 100 μL of complete cell culture media were plated in a 96 well plate (Corning, Lowell, Mass.) in triplicates and were then incubated for 24 h in a humidified CO2 cell culture incubator maintained at 37° C. Serial dilutions of polymer-paclitaxel conjugates and paclitaxel were prepared in PBS and added to cells in a volume of 10 μL. The cells were either incubated for a short period of 2 h or for longer continuous incubation of 72 h. After 2 h incubation, the media was replaced with 110 μL of fresh complete RPMI. Cell viability was assessed by using a colorimetric WST-1 cell proliferation kit (Roche, Indianapolis, Ind.) and following manufacturer's instructions. Cell viability was calculated as a percentage of the control cells treated with no drugs. […]

[4] = Saturate concentration of PTX in PBS buffer by UV; type: physicochemical
Protocol: The saturate concentration is around 1.7 ug/mL. PTX concentrations as low as 6.25 ng/mL were detected.

CC(=O)O[C@H]1C(=O)[C@@]2(C)[C@H]([C@H](OC(=O)c3ccccc3)[C@]3(O)C[C@H](OC(=O)[C@H](O)[C@@H](NC(=O)c4ccccc4)c4ccccc4)C(C)=C1C3(C)C)[C@]1(OC(C)=O)CO[C@@H]1C[C@@H]2O [PTX, paclitaxel]
IC50 ([1]; Table 1, 72 h, PTX as Taxol®-mimicking formulation (Cremophor-EL and ethanol, 1:1 v/v), read-out: IC50 (μM) OVCAR-3): 0.007 µM
IC50 ([1]; Table 2, 72 hours, PTX as Taxol-mimicking formulation, read-out: IC50 (μM)in OVCAR-3): 0.007 µM
IC50 ([2]; RAW264.7, Table 1, 72 h, PTX as Taxol®-mimicking formulation (Cremophor-EL and ethanol, 1:1 v/v), read-out: IC50 (μM) RAW 264.7): 0.044 µM
IC50 ([2]; RAW264.7, Table 2, 72 hours, PTX as Taxol-mimicking formulation, read-out: IC50 (μM) in RAW 264.7): 0.04 µM
IC50 [3]: 0.0044 µM
saturate concentration of PTX [4]: around 1.7 ug/mL
